Experimental data published in paper PMC8585037 (International Journal of Molecular Sciences, 2021).
Where “and” joins values, the source holds several entries; their conditions need not be identical. Equal values may be shown once.

Columns and labels:
DAT = biological target: T1, DAT (Rattus norvegicus, UniProt P23977); test: Synaptosomal uptake of [3H]DA in rat brain synaptosomes; format: biochemical
T1 construct: Synaptosomes from rat cerebrum were isolated as described by Bogen et al; from tissue; host or cells: rat cerebrum synaptosomes

[1] = tested on: DA, 3-MT, DOPAC, 5-HT and 5-HIAA in dorsal striatum and nucleus accumbens; test: Neurotransmitter and metabolite concentrations in post-mortem mouse brain tissue; format: in vivo; conditions: 20 min after 3.75 mg/kg i.p.
[2] = Pharmacokinetic studies: drug concentrations in mouse blood and brain tissue; conditions: for half-life / Cmax: C57BL/6, mouse, ip
vesicular DA uptake = tested on: vesicular DA uptake; design: method as in PMID 16835371; conditions: cited from earlier work
C57BL/6J mice = test: Locomotor activity studies in mice; format: in vivo, mouse; conditions: for dose giving maximal locomotor effect (Emax): i.p.
CD-1 mice [3] = conditions: chronic exposure, 10 mg/kg/day for 30 days; cited from earlier work
SERT = biological target: T2, SERT (Rattus norvegicus, UniProt P31652); test: Synaptosomal uptake of [3H]5-HT in rat brain synaptosomes; format: biochemical; conditions: IC50 Synaptosomes [3H]5-HT Uptake via SERT
T2 construct: Synaptosomes from rat cerebrum were isolated as described by Bogen et al; from tissue; host or cells: rat cerebrum synaptosomes

[4] = cited from earlier work
NET = biological target: T3, NET (Rattus norvegicus, UniProt Q63380); test: Synaptosomal uptake of [3H]NE in rat brain synaptosomes; format: biochemical
T3 construct: Synaptosomes from rat cerebrum were isolated as described by Bogen et al; from tissue; host or cells: rat cerebrum synaptosomes

VMAT2 = biological target: T4, VMAT2 (Rattus norvegicus, UniProt Q01827); test: Vesicular uptake of [3H]DA, [3H]NE and [3H]5-HT in rat brain synaptic vesicles; format: biochemical
T4 construct: Synaptic vesicles from rat cerebrum were isolated as described previously; from tissue; host or cells: rat cerebrum synaptic vesicles

Sprague-Dawley rats = tested on: Sprague-Dawley rats; design: method as in PMID 27265782; conditions: i.p.; cited from earlier work
CD-1 mice [5] = tested on: CD-1 mice; design: method as in PMID 32356113, PMID 33770233; conditions: i.p.; cited from earlier work
[6] = mouse, single i.p. injection of 3.75 mg/kg methamphetamine

T4 sequence (Q01827 whole entry): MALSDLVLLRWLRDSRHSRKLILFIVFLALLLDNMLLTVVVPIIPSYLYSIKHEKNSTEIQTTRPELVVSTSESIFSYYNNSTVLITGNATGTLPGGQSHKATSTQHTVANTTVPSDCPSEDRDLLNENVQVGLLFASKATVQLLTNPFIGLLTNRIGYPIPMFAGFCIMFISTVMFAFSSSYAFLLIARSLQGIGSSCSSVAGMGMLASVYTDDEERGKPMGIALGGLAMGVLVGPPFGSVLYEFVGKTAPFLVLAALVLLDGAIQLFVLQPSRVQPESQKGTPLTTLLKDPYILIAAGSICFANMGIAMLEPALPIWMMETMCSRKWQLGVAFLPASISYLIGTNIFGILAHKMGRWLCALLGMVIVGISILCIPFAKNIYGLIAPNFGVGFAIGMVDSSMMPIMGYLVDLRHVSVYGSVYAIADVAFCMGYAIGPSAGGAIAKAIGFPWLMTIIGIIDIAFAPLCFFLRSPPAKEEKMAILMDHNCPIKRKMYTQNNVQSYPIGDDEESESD
T1 sequence (P23977 whole entry): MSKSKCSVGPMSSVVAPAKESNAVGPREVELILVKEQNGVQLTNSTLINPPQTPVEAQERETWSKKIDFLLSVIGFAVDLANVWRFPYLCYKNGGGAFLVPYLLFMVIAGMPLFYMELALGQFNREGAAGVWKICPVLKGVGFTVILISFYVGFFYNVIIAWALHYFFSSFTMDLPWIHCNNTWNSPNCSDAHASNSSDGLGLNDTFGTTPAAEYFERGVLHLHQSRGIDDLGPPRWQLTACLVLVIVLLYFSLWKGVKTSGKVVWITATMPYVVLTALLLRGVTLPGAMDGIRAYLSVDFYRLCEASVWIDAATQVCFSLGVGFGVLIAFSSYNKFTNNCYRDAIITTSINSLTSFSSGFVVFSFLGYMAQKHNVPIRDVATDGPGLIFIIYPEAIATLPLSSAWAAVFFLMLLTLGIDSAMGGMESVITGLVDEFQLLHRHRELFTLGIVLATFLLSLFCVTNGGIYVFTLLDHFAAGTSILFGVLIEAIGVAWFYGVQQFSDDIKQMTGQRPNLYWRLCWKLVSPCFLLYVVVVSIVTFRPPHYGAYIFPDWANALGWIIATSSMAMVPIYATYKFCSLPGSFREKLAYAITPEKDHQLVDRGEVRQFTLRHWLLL
T2 sequence (P31652 whole entry): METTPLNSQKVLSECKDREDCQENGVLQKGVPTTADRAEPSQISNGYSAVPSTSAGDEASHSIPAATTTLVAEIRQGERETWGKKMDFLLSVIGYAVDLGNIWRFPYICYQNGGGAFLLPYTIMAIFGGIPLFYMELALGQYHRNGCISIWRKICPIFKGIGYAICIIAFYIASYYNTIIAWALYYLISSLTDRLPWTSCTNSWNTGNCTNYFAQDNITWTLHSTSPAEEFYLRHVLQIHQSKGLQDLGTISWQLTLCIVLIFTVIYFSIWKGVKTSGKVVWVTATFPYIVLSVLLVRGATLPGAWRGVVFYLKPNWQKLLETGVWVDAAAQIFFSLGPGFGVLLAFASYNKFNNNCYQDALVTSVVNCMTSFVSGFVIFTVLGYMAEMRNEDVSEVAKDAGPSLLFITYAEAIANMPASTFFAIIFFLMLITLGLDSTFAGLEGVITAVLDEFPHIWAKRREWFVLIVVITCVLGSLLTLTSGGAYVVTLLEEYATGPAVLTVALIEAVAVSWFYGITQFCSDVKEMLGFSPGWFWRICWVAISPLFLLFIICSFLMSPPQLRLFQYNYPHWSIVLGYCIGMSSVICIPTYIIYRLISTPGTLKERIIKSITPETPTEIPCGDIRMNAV
T3 sequence (Q63380 1-617): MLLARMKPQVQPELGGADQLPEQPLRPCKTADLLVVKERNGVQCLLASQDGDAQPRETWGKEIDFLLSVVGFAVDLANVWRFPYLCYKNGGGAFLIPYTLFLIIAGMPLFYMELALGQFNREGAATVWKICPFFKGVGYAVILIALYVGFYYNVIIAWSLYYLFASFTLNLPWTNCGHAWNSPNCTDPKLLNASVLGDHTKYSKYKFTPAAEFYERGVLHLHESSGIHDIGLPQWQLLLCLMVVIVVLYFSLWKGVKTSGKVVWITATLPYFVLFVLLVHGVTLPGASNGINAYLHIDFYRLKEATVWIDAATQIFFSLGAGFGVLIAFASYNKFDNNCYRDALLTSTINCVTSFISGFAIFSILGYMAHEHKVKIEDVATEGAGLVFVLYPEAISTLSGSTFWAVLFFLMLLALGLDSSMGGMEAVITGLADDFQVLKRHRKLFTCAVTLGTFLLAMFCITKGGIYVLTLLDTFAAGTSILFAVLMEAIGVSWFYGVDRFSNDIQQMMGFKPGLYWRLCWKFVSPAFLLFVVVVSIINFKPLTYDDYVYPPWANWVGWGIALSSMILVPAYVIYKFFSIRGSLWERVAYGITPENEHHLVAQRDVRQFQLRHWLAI

## CN[C@@H](C)Cc1ccccc1 [methamphetamine]
DAT
  IC50: 0.14 ± 0.01 µM
[1]; Dorsal Striatum
  3-MT concentration: 3.6 ± 0.7 nmol/g
  5-HT concentration: 2.0 ± 0.3 nmol/g
  DA concentration: 107.4 ± 21.1 nmol/g
[1]; Nucleus Accumbens
  3-MT concentration: 3.5 ± 1.0 nmol/g
  5-HT concentration: 6.1 ± 0.8 nmol/g
  DA concentration: 82.2 ± 10.5 nmol/g
[2]; brain, 3.75 mg/kg
  half-life: ~45 min
[2]; brain, 3.75 mg/kg, Cmax in brain, mouse, single i.p. injection of 3.75 mg/kg methamphetamine
  Cmax: 4110 ± 150 ng/g
[2]; whole blood, 3.75 mg/kg
  half-life: ~36 min
[2]; whole blood, 3.75 mg/kg, Cmax in blood, mouse, single i.p. injection of 3.75 mg/kg methamphetamine
  Cmax: 910 ± 80 ng/mL
[2]; [6]
  time of Cmax in blood: 5 min
  time of Cmax in brain: 20 min
Vesicular DA uptake
  IC50: 9.1 µM
C57BL/6J mice; 3.75 mg/kg i.p., C57BL/6 mice
  Emax, maximum run distance per 5 min interval: 1312 ± 126 cm
  maximum total locomotor activity (total run distance during 240 min session): 24,401 ± 2043 cm
C57BL/6J mice; C57BL/6 mice
  dose giving maximal locomotor effect (Emax): 3.75 mg/kg

## CNC(C)Cc1cccs1 (stereo not shown) [methiopropamine, 1-(thiophen-2-yl)-2-methylaminopropane]
CD-1 mice [3]
  sudden deaths: 70 % deaths
DAT
  IC50: 0.74 ± 0.09 µM
DAT; DA, NE and 5-HT transporters
  potency, fold weaker compared with methamphetamine: approximately 5 ×
SERT
  IC50: 25.1 ± 2.91 µM
[4]; fatal case of isolated methiopropamine use
  peripheral postmortem blood concentration: 38 µg/mL
[4]; fatal intoxication case
  blood concentration: 245 µM
[2]; 5, 30 and 60 min after injection, […] methiopropamine vs 3.75 mg/kg methamphetamine, p > 0.05
  brain:blood ratios, comparison of the two drugs: no significant differences
[2]; blood and brain, […]
  half-life: ~30 min
[2]; brain, […]
  half-life: ~35 min
[2]; whole blood, […]
  half-life: ~31 min
NET
  IC50: 0.47 ± 0.06 µM
VMAT2; IC50 Synaptic Vesicles [3H]5-HT Uptake via VMAT2, rat brain synaptic vesicles
  IC50: 48.9 ± 5.02 µM
VMAT2; IC50 Synaptic Vesicles [3H]DA Uptake via VMAT2, rat brain synaptic vesicles
  IC50: 33.8 µM
VMAT2; IC50 Synaptic Vesicles [3H]NE Uptake via VMAT2, rat brain synaptic vesicles
  IC50: 47 ± 8.01 µM
VMAT2; IC50 vesicular uptake of DA, NE and 5-HT (span over the three substrates), rat brain synaptic vesicles
  IC50: 34 to 49 µM and > 25 µM and 10 to 50 µM
Sprague-Dawley rats
  dose with significant increase in locomotor activity: 5 mg/kg
C57BL/6J mice; […] i.p., C57BL/6 mice
  peak effect (Emax), maximum run distance per 5 min interval: 2037 ± 127 cm/5 min
C57BL/6J mice; C57BL/6 mice
  dose giving maximal locomotor effect (Emax): 12.5 mg/kg
C57BL/6J mice; mouse, in vivo
  sudden deaths: did not observe any sudden deaths
CD-1 mice [5]
  dose with significant increase in locomotor activity: 10 mg/kg
